Holding throughout (assay type): cell-based
Data set [1] relates to Candida tropicalis (ATCC-20240). Kind of data set: Antifungal MIC, broth microdilution with MTT. The following applies: most sensitive yeast. The procedure:
(§1) Candida glabrata (ATCC-90525), Candida parapsilosis (ATCC-20224), Candida krusei (ATCC-6258), Candida tropicalis (ATCC-20240), Candida albicans (ATCC-2048) were supplied by the Chinese Academy of Medical Sciences.
(§2) Minimum inhibitory concentrations (MICs) of CGA-N46 and its derivatives against fungi were measured according to a modified version of broth microdilution method of the Clinical and Laboratory Standards Institute (CLSI). Fungi cell’s viability was assessed based on the reduction of 3-[4,5-dimethylthiazolyl]-2,5-diphenyltetrazolium bromide (MTT) into formazan dye by active mitochondria. Briefly, peptides were serially twofold diluted in 20 mM PBS (pH 6.0) to a final concentration between 2 mg mL^−1 and 3.9 µg mL^−1. Subsequently, 100 μL samples was dispensed into the wells of a 96-U-shaped-well plate, and each was mixed with 100 μL of the 2 × inoculum suspension (1–5 × 10^4 CFU mL^−1) of a log-phase fungal culture in Sabouraud (SD) broth. Strains without treatment with peptides were used as negative control. The cultures were incubated at 30 °C without agitation for 16 h. 10 μL of MTT solution (5 mg mL^−1 MTT in PBS) was added to each well, and the plate was further incubated for 4 h. After rinsed, 100 μL of dimethylsulfoxide (DMSO) was added to dissolve the MTT formazan crystals. The inhibition of growth was determined by measuring the absorbance at 570 nm with a microplate reader. The relative cellular activity was calculated according to the following formula: cell survival inhibition rate (\% of control)= [(OD570of the negative sample-OD570of the treated sample) / OD570of the negative control]×100\%.
(§3) Each test was performed in triplicate, and the data were expressed as the mean ± SE.
For orientation: In broth dilution the organism is exposed to a series of concentrations in liquid medium.

Data set [2] relates to Human red blood cells (RBCs). The procedure:
Hemolytic activity was tested according to the method. Briefly, peptides were serially twofold diluted using PBS in 96-well plates to give a volume of 100 μL of the sample solution in each well, and the final concentration of peptides ranged between 2.0 mg mL^−1 and 3.9 μg mL^−1. Human red blood cells (RBCs) from a healthy volunteer were diluted to a concentration of 2 % in PBS. 100 μL of the RBC suspension was added to each well, and the reactions were incubated at 37 °C for 60 min, followed by 150 μL supernatant being transferred to a new 96-well plate (U-shaped well). The release of hemoglobin was determined by measuring the absorbance of the supernatant at 570 nm. RBCs in PBS and 0.1 % (v/v) Triton-X100 were used as the negative and positive controls, respectively. The percentage of hemolysis was calculated using the following formula: Hemolysis rate%=[(OD570of the treated sample-OD570of the negative control)/OD570of the positive control-OD570of the negative control]×100%. Each test was performed in triplicate, and the data were expressed as the mean ± SE.

The test system of data set [3] is Candida krusei (ATCC-6258). The experiment in a line: Antifungal MIC, broth microdilution with MTT. The following applies: most sensitive yeast. The procedure: as §1, §2, §3
Data set [4] has as its system Candida albicans (ATCC-2048). Kind of data set: Antifungal MIC, broth microdilution with MTT. The following applies: most sensitive yeast. The procedure:
as §1, §2, §3

Data set [5] relates to Candida glabrata (ATCC-90525). Kind of data set: Antifungal MIC, broth microdilution with MTT. Conditions: most sensitive yeast. The procedure:
as §1, §2, §3

With “H-ALQGAKERAHQQ-OH [CGA-N12, NH2–ALQGAKERAHQQ–COOH]”, in data set [1], the “MIC C. tropicalis” value is 75 µM. In addition, in data set [2], the “5 % Hemolysis” value came to 0.39 mmol/L and the “hemolytic activity (in words)” value is recorded as “weak hemolytic activity at the concentration of MIC”.

Consider “H-ERILSILRHQNLLKE-OH [CGA-N15, NH2–ERILSILRHQNLLKE–COOH]”, for which, in data set [1], the “MIC C. tropicalis” value was determined as 73 µM. Further, in data set [2], the “5 % Hemolysis” value amounted to 0.031 mmol/L and the “hemolytic activity (in words)” value is given as “strong hemolytic activity”.

With “H-GAKERAHQ-OH [CGA-N8, NH2–GAKERAHQ–COOH]”, in data set [3], the “MIC C. krusei” value was 240 µM. In data set [4], the “MIC C. albicans” value is 240 µM. In data set [2], the “5 % Hemolysis” value worked out at 0.27 mmol/L and the “hemolytic activity (in words)” value is “MIC was near the concentration of its 5 % hemolysis”.

On to “H-LQDLALQGAKERAHQQ-OH [CGA-N16, NH2–LQDLALQGAKERAHQQ–COOH]”, for which the “MIC C. glabrata” value in data set [5] worked out at 280 µM. For the same substance, in data set [2], the “5 % Hemolysis” value is 0.056 mmol/L and the “hemolytic activity (in words)” value is given as “strong hemolytic activity”.

On to “H-PMPVSQECFETLRGHERILSILRHQNLLKELQDLALQGAKERAHQQ-OH [CGA-N46]”, for which, in data set [2], the “5 % Hemolysis” value is 0.74 mmol/L and the “hemolytic activity (in words)” value is reported as “weak hemolytic activity at the concentration of MIC”.

For the origin of these results see paper PMC4982898, “Molecular Design, Structural Analysis and Antifungal Activity of Derivatives of Peptide CGA-N46” (Interdisciplinary Sciences, Computational Life Sciences, 2016).
